Measured values: patent publication US20230140972A1, “GLYCEROL GLUCOSIDE-BASED COMPOUND AND COMPOSITION COMPRISING SAME FOR ULTRAVIOLET LIGHT SHIELD OR ANTI-INFLAMMATION” (ATHENA CO., LTD., priority 2020, published 2023)
Values joined by “and” are separate entries in the source; they are usually repeats but may differ in a detail not shown here. Equal values may be shown once.

Legend:
[1] = tested on: NO production in LPS-treated RAW264.7 cells; experiment: Nitric oxide (NO) production inhibition, non-enzymatic method (Griess); type: cell-based; details: Mus musculus, LPS 1 μg/mL, read-out: NO production inhibition rate
Method: An NO assay was performed to evaluate the nitric oxide (NO) production inhibition ability of the glycerol glucoside-based compound sample (EPS-S).
Specifically, subcultured RAW264.7 cells were aliquoted in a 96-well plate at 1×10^5 cells/well, and cultured for 24 hours at 37° C. in an incubator containing 5% carbon dioxide, and then, a culture media was replaced with a serum-free media. Then, each sample was diluted by concentration, treated onto the cell with LPS (final 1 μg/mL), and after culturing for 24 hours, the cell culture medium and a Griess reagent were reacted, and an absorbance was then measured at 540 nm with a microplate reader. Dexamethasone was used as a positive control group. After the test was conducted once, each absorbance value was substituted into Equation 2 below to obtain the NO production inhibition rate (%), and it was expressed as the mean±standard deviation.

[2] = tested on: NO2 production in LPS-treated RAW264.7 cells; experiment: Nitric oxide (NO2) production amount and inhibition, non-enzymatic method; type: cell-based, mouse; details: LPS 1 μg/mL, 24 h
Method: An NO assay was performed to evaluate an amount of nitric oxide (NO2) production and a production inhibition ability of the glycerol glucoside-based compound sample (EPS-S).
Specifically, subcultured RAW264.7 cells were aliquoted into a 96-well plate at 1×10^5 cells/well, and cultured at 37° C. in an incubator containing 5% carbon dioxide for 24 hours, and then a culture media was replaced with a serum-free media. […] Dexamethasone was used as a positive control group.

[3] = tested on: total NO production in LPS-treated RAW264.7 cells; experiment: Nitric oxide (total NO) production and inhibition, enzymatic method; type: cell-based, mouse; details: LPS 1 μg/mL
Method: An NO assay was performed to evaluate an amount of nitric oxide (total NO) production and a production inhibition rate of the glycerol glucoside-based compound sample (EPS-S).
Specifically, subcultured RAW264.7 cells were aliquoted into a 96-well plate at 1×10^5 cells/well, and cultured at 37° C. in an incubator containing 5% carbon dioxide for 24 hours, and then a culture media was replaced with a serum-free media. Then, each sample is diluted by concentration and treated onto the cells with LPS (final 1 μg/mL). After culturing for 24 hours, a cell culture medium was treated with nitrate reductase, enzyme cofactor and enhancer to react. A Griess reagent was added and an absorbance was measured at 540 nm with a microplate reader. A total NO production was obtained by substituting the absorbance into a standard nitric oxide calibration curve, and a total NO production inhibition rate (%) was analyzed through Equation 2 and expressed as a mean±standard deviation. Dexamethasone was used as a positive control group.

[4] = tested on: PGE2 production in RAW264.7 cells; experiment: PGE2 production inhibition using ELISA assay; type: cell-based, mouse; details: Mus musculus, RAW264.7, LPS 10 ng/mL, read-out: PGE2 production inhibitory ability
Method: A PGE2 production inhibition ability of the sample in RAW264.7 cells was evaluated using a PGE2 ELISA assay.
Specifically, subcultured RAW264.7 cells were aliquoted into a 6-well dish at 1.5×10^6 cells/well and cultured for 24 hours at 37° C. in an incubator containing 5% carbon dioxide, and then a culture media was replaced with a serum-free media. Then, each sample was diluted by concentration and treated onto the cells with LPS (final 10 ng/mL). After culturing for 24 hours, the cell culture medium was recovered and a PGE2 ELISA assay was performed.
100 μL of each of a standard solution and a cell culture solution were put into each well, and then 50 μL of PGE2 conjugate and 50 μL of PGE2 antibody were sequentially added and reacted at room temperature for 2 hours. Then, the reaction solution was removed from each well, washing is performed with a wash buffer, 200 μL of a substrate solution was then added, and reacted at room temperature for 45 minutes. Then, 50 μL of a stop solution was added and an absorbance was measured at 405 and 570 nm. Dexamethasone was used as a positive control group. After the test was conducted once, an amount of PGE2 production was calculated by substituting the absorbance value into a PGE2 standard solution calibration curve, and the PGE2 production inhibition rate (%) was calculated using Equation 5 below and expressed as the mean±standard deviation.

[5] = tested on: TNF-α production in RAW264.7 cells; experiment: TNF-α production inhibition using ELISA assay; type: cell-based; details: Mus musculus, LPS 10 ng/mL, read-out: TNF-α production inhibition ability
Method: A TNF-α production inhibition ability of the sample in RAW264.7 cells was evaluated using a TNF-α ELISA assay.
Specifically, subcultured RAW264.7 cells were aliquoted into a 6-well dish at 1.5×10^6 cells/well, and cultured for 24 hours at 37° C. in an incubator containing 5% carbon dioxide, and then a culture media was replaced with a serum-free media. Then, each sample was diluted by concentration and treated onto the cells with LPS (final 10 ng/mL). After culturing for 24 hours, the cell culture medium was recovered and the TNF-α ELISA assay was performed.
50 μL of an assay diluent was put into each well, and 50 μL of each of a standard solution and a cell culture solution were added to each well and reacted at room temperature for 2 hours. Thereafter, the reaction solution was removed from each well, washed with a wash buffer, 100 μL of TNF-α conjugate was added, and after reacting at room temperature for 2 hours, the reaction solution was removed from each well and washing is performed with a wash buffer.
Thereafter, 100 μL of a substrate solution was added and a reaction under light blocking was carried out at room temperature, and then 100 μL of a stop solution was added, and an absorbance was measured at 450 and 570 nm. Dexamethasone was used as a positive control group. After the test was conducted once, a TNF-α synthesis amount was calculated by substituting the absorbance value into a TNF-α standard solution calibration curve, and then the TNF-α production inhibition rate (%) was calculated using Equation 3 below, and expressed as the mean±standard deviation of the experiment.

`COCC(COC)OC1OC(CO)C(O)C(O)C1O` (centres unmarked) [EPS-S] was tested, and the inhibition at 1 ppm ([1]; 24 h, 1 ppm) was -5.66%, the inhibition at 10 ppm ([1]; 24 h, 10 ppm) was 6.1% and the inhibition at 100 ppm ([1]; 24 h, 100 ppm) was 14.2%. For the same molecule, the inhibition at 1000 ppm ([1]; 24 h, 1,000 ppm) was 30.3%, the NO2 production amount ([2]; 10 ppm) was 23.14 ± 0.25 µM and the NO2 production amount ([2]; 100 ppm) was 23.14 µM and 22.57 ± 0.16 µM. For the same molecule, the NO2 production amount ([2]; 500 ppm (text b168)) was 22.57 µM, the NO2 production amount ([2]; 1000 ppm) was 20.90 µM and 20.90 ± 0.50 µM and the inhibition at 100 ppm ([2]; Mus musculus, RAW264.7, 100 ppm, read-out: NO2 production inhibition rate) was 9.47%. The inhibition at 500 ppm ([2]; Mus musculus, RAW264.7, 500 ppm, read-out: NO2 production inhibition rate) was 13.2%, the inhibition at 1000 ppm ([2]; Mus musculus, RAW264.7, 1000 ppm, read-out: NO2 production inhibition rate) was 24% and the “Total NO production” value ([3]; 24 h, 100 ppm) was 62.07 µM and 62.07 ± 0.48 µM. For the same molecule, the “Total NO production inhibition rate” value ([3]; 24 h, 100 ppm) was −3.85 ± 2.22%, the “Total NO production” value ([3]; 24 h, 500 ppm) was 59.20 µM and 59.20 ± 0.86 µM and the “Total NO production” value ([3]; 24 h, 1000 ppm) was 53.38 µM and 53.38 ± 0.18 µM. It also gave an inhibition at 10 ppm ([3]; Mus musculus, RAW264.7, 24 h, 10 ppm, read-out: Total NO production inhibition rate) of -11.3 ± 1.24%, an inhibition at 500 ppm ([3]; Mus musculus, RAW264.7, 24 h, 500 ppm (text b176), read-out: Total NO production inhibition rate) of -3.84% and an inhibition at 1000 ppm ([3]; Mus musculus, RAW264.7, 24 h, 1000 ppm, read-out: Total NO production inhibition rate) of 11.2%. It also gave an inhibition at 10 ppm ([4]; 24 h, 10 ppm) of 28.3%, an inhibition at 100 ppm ([4]; 24 h, 100 ppm) of 36.5% and an inhibition at 500 ppm ([4]; 24 h, 500 ppm) of 47.2%. It also gave an inhibition at 1000 ppm ([4]; 24 h, 1,000 ppm) of 94.1%, an inhibition at 10 ppm ([5]; 24 h, 10 ppm) of 29.7% and an inhibition at 100 ppm ([5]; 24 h, 100 ppm) of 34.9%. The inhibition at 500 ppm ([5]; 24 h, 500 ppm) was 49.7% and the inhibition at 1000 ppm ([5]; 24 h, 1,000 ppm) was 77.6%.
